# Reference: PubChem BioAssay AID228 (DTP/NCI, 2004)
# Values joined by “and” are separate entries in the source; they are usually repeats but may differ in a detail not shown here. Equal entries are not always repeated. Results filed as inconclusive are left out.
# System: BDF1 mice, Friend leukemia sc, tumor weight T/C
# Assay: NCI In Vivo Anticancer Drug Screen. Data for tumor model Friend Virus Leukemia (Solid) (subcutaneous) in B6D2F1 (BDF1) mice
# Conditions: endpoint: mean tumor weight, higher = larger tumour
# Protocol: The antitumor activity of compounds was measured in mice bearing transplantable tumors. Survival or tumor size were measured and the results are expressed as the measurement made in the treated group (T) divided by the measurement made in the vehicle treated control group (C). The tumor model used in this assay is Friend Virus Leukemia (Solid) (subcutaneous) in B6D2F1 (BDF1) mice
# [1] = dose: 125.0 mg/kg/injection, schedule: Q01DX011 (ip), vehicle: carboxymethylcellulose (CMC)
# [2] = dose: 250.0 mg/kg/injection, schedule: Q01DX011 (ip), vehicle: carboxymethylcellulose (CMC)
# [3] = dose: 500.0 mg/kg/injection, schedule: Q01DX011 (ip), vehicle: carboxymethylcellulose (CMC)
# [4] = dose: 12.5 mg/kg/injection, schedule: Q01DX011 (ip), vehicle: carboxymethylcellulose (CMC)
# [5] = dose: 50.0 mg/kg/injection, schedule: Q01DX011 (ip), vehicle: carboxymethylcellulose (CMC)
# [6] = dose: 0.05 mg/kg/injection, schedule: Q01DX011 (ip), vehicle: carboxymethylcellulose (CMC)
# [7] = dose: 0.1 mg/kg/injection, schedule: Q01DX011 (ip), vehicle: carboxymethylcellulose (CMC)
# [8] = dose: 0.15 mg/kg/injection, schedule: Q01DX011 (ip), vehicle: carboxymethylcellulose (CMC)
# [9] = dose: 25.0 mg/kg/injection, schedule: Q01DX011 (ip), vehicle: carboxymethylcellulose (CMC)
# [10] = dose: 100.0 mg/kg/injection, schedule: Q01DX011 (ip), vehicle: carboxymethylcellulose (CMC)
# [11] = dose: 0.4 mg/kg/injection, schedule: Q01DX011 (ip), vehicle: carboxymethylcellulose (CMC)
structure (smiles),measurement,setting,value
O=C(Nc1ccc(C2=NCCN2)cc1)c1cc(Cl)cc(C(=O)Nc2ccc(C3=NCCN3)cc2)c1,T/C,"dose: 62.0 mg/kg/injection, schedule: Q01DX011 (ip), vehicle: carboxymethylcellulose (CMC)",75 % of control
same,T/C,[1],111 % of control
same,T/C,[2],81 % of control
same,T/C,[3],114 % of control
O=C1CN(/N=C\c2ccc([N+](=O)[O-])o2)C(=O)N1,T/C,"dose: 4.7 mg/kg/injection, schedule: Q01DX011 (ip), vehicle: carboxymethylcellulose (CMC)",101 % of control
same,T/C,"dose: 9.5 mg/kg/injection, schedule: Q01DX011 (ip), vehicle: carboxymethylcellulose (CMC)",91 % of control and 96 % of control
same,T/C,"dose: 19.0 mg/kg/injection, schedule: Q01DX011 (ip), vehicle: carboxymethylcellulose (CMC)",96 % of control and 100 % of control
c1ccc(CNc2ncnc3[nH]ncc23)cc1,T/C,"dose: 1.12 mg/kg/injection, schedule: Q01DX011 (ip), vehicle: carboxymethylcellulose (CMC)",109 % of control
same,T/C,"dose: 2.25 mg/kg/injection, schedule: Q01DX011 (ip), vehicle: carboxymethylcellulose (CMC)",77 % of control
same,T/C,"dose: 4.5 mg/kg/injection, schedule: Q01DX011 (ip), vehicle: carboxymethylcellulose (CMC)",78 % of control
same,T/C,"dose: 9.0 mg/kg/injection, schedule: Q01DX011 (ip), vehicle: carboxymethylcellulose (CMC)",117 % of control
same,T/C,"dose: 18.5 mg/kg/injection, schedule: Q01DX011 (ip), vehicle: carboxymethylcellulose (CMC)",15 % of control
O=P1(N(CCCl)CCCl)NCCCO1 (stereo unspecified),T/C,"dose: 0.5 mg/kg/injection, schedule: Q01DX015 (ip), vehicle: saline",183 % of control
same,T/C,"dose: 1.0 mg/kg/injection, schedule: Q01DX015 (ip), vehicle: saline",209 % of control
same,T/C,"dose: 1.5 mg/kg/injection, schedule: Q01DX011 (ip), vehicle: carboxymethylcellulose (CMC)",93 % of control
same,T/C,"dose: 2.0 mg/kg/injection, schedule: Q01DX015 (ip), vehicle: saline",224 % of control
same,T/C,"dose: 3.0 mg/kg/injection, schedule: Q01DX011 (ip), vehicle: carboxymethylcellulose (CMC)",81 % of control
same,T/C,"dose: 3.0 mg/kg/injection, schedule: Q01DX015 (ip), vehicle: saline",224 % of control
same,T/C,"dose: 4.0 mg/kg/injection, schedule: Q01DX015 (ip), vehicle: saline",225 % of control
same,T/C,"dose: 6.0 mg/kg/injection, schedule: Q01DX011 (ip), vehicle: carboxymethylcellulose (CMC)",89 % of control
same,T/C,"dose: 6.2 mg/kg/injection, schedule: Q01DX011 (ip), vehicle: saline",117 % of control
same,T/C,"dose: 6.25 mg/kg/injection, schedule: Q01DX011 (ip), vehicle: carboxymethylcellulose (CMC)",28 % of control
same,T/C,"dose: 7.12 mg/kg/injection, schedule: Q01DX011 (ip), vehicle: saline",105 % of control
same,T/C,"dose: 8.0 mg/kg/injection, schedule: Q01DX011 (ip), vehicle: saline",101 % of control
same,T/C,"dose: 12.0 mg/kg/injection, schedule: Q01DX011 (ip), vehicle: saline",58 % of control
same,T/C,[4],37 % of control
same,T/C,"dose: 12.5 mg/kg/injection, schedule: Q01DX011 (ip), vehicle: saline",64 % of control
same,T/C,"dose: 14.25 mg/kg/injection, schedule: Q01DX011 (ip), vehicle: saline",52 % of control
same,T/C,"dose: 23.0 mg/kg/injection, schedule: Q01DX011 (ip), vehicle: saline",14 % of control
same,T/C,"dose: 25.0 mg/kg/injection, schedule: Q01DX011 (ip), vehicle: saline",14 % of control
same,T/C,"dose: 28.5 mg/kg/injection, schedule: Q01DX011 (ip), vehicle: saline",32 % of control
same,T/C,"dose: 29.0 mg/kg/injection, schedule: Q01DX011 (ip), vehicle: saline",6 % of control
same,T/C,[5],7 % of control and 10 % of control and 11 % of control
N#Cc1cn(C2OC(CO)C(O)C2O)c2ncnc(N)c12 (stereo unspecified),T/C,[6],68 % of control
same,T/C,[7],72 % of control
same,T/C,[8],71 % of control
CC(=O)Nc1ccc2nc3ccc(NC(C)=O)cc3[n+](-c3ccccc3)c2c1,T/C,[9],101 % of control
same,T/C,[5],112 % of control
same,T/C,[10],92 % of control
C1CN1c1nc(N2CC2)nc(N2CC2)n1,T/C,[6],164 % of control and 233 % of control
same,T/C,[7],161 % of control and 293 % of control
same,T/C,"dose: 0.12 mg/kg/injection, schedule: Q01DX011 (ip), vehicle: carboxymethylcellulose (CMC)",114 % of control
same,T/C,[8],41 % of control
same,T/C,"dose: 0.2 mg/kg/injection, schedule: Q01DX011 (ip), vehicle: carboxymethylcellulose (CMC)",169 % of control and 256 % of control
same,T/C,"dose: 0.2 mg/kg/injection, schedule: Q01DX011 (ip), vehicle: saline",61 % of control and 76 % of control
same,T/C,"dose: 0.3 mg/kg/injection, schedule: Q01DX011 (ip), vehicle: carboxymethylcellulose (CMC)",26 % of control
same,T/C,"dose: 0.3 mg/kg/injection, schedule: Q01DX011 (ip), vehicle: saline",49 % of control
same,T/C,[11],68 % of control and 85 % of control
same,T/C,"dose: 0.4 mg/kg/injection, schedule: Q01DX011 (ip), vehicle: saline",31 % of control and 35 % of control
same,T/C,"dose: 0.6 mg/kg/injection, schedule: Q01DX011 (ip), vehicle: carboxymethylcellulose (CMC)",24 % of control
C=CC(=O)NCNC(=O)C=C,T/C,"dose: 15.0 mg/kg/injection, schedule: Q01DX011 (ip), vehicle: saline",89 % of control
same,T/C,"dose: 30.0 mg/kg/injection, schedule: Q01DX011 (ip), vehicle: saline",84 % of control
same,T/C,"dose: 60.0 mg/kg/injection, schedule: Q01DX011 (ip), vehicle: saline",70 % of control and 51 % of control
same,T/C,"dose: 120.0 mg/kg/injection, schedule: Q01DX011 (ip), vehicle: saline",16 % of control and 39 % of control
CCCCn1cnc2c(SC)nc(N)nc21,T/C,"dose: 18.75 mg/kg/injection, schedule: Q01DX011 (ip), vehicle: carboxymethylcellulose (CMC)",120 % of control
same,T/C,"dose: 37.5 mg/kg/injection, schedule: Q01DX011 (ip), vehicle: carboxymethylcellulose (CMC)",98 % of control
same,T/C,"dose: 75.0 mg/kg/injection, schedule: Q01DX011 (ip), vehicle: carboxymethylcellulose (CMC)",83 % of control
same,T/C,"dose: 150.0 mg/kg/injection, schedule: Q01DX011 (ip), vehicle: carboxymethylcellulose (CMC)",63 % of control
CNCc1ccccc1,T/C,"dose: 43.5 mg/kg/injection, schedule: Q01DX011 (ip), vehicle: saline",110 % of control
same,T/C,"dose: 87.0 mg/kg/injection, schedule: Q01DX011 (ip), vehicle: saline",100 % of control
C=CCNc1ccc(C)cc1,T/C,"dose: 22.0 mg/kg/injection, schedule: Q01DX011 (ip), vehicle: carboxymethylcellulose (CMC)",60 % of control
same,T/C,"dose: 45.0 mg/kg/injection, schedule: Q01DX011 (ip), vehicle: carboxymethylcellulose (CMC)",58 % of control
same,T/C,"dose: 90.0 mg/kg/injection, schedule: Q01DX011 (ip), vehicle: carboxymethylcellulose (CMC)",35 % of control
CC(C)CCS(=O)(=O)OCCCCOS(=O)(=O)CCC(C)C,T/C,"dose: 62.5 mg/kg/injection, schedule: Q01DX011 (ip), vehicle: carboxymethylcellulose (CMC)",98 % of control
same,T/C,[1],97 % of control
same,T/C,[2],73 % of control
same,T/C,[3],39 % of control
Nc1nc(=S)c2[nH]cnc2[nH]1,T/C,"dose: 0.25 mg/kg/injection, schedule: Q01DX011 (ip), vehicle: carboxymethylcellulose (CMC)",53 % of control and 47 % of control
same,T/C,[11],33 % of control and 36 % of control
same,T/C,"dose: 0.66 mg/kg/injection, schedule: Q01DX011 (ip), vehicle: carboxymethylcellulose (CMC)",23 % of control and 26 % of control
NC(=O)n1cccn1,T/C,"dose: 25.0 mg/kg/injection, schedule: Q01DX011 (ip), vehicle: other",107 % of control
same,T/C,"dose: 50.0 mg/kg/injection, schedule: Q01DX011 (ip), vehicle: other",120 % of control
same,T/C,"dose: 100.0 mg/kg/injection, schedule: Q01DX011 (ip), vehicle: other",78 % of control
same,T/C,"dose: 150.0 mg/kg/injection, schedule: Q01DX011 (ip), vehicle: other",13 % of control
same,T/C,"dose: 200.0 mg/kg/injection, schedule: Q01DX011 (ip), vehicle: other",28 % of control
O=C(O)C1(NO)CCCC1,T/C,[4],98 % of control
same,T/C,[9],78 % of control
same,T/C,[10],18 % of control and 34 % of control
C[C@]12C=CC(=O)C=C1CC[C@@H]1[C@@H]2CC[C@]2(C)OC(=O)CC[C@@H]12,T/C,"dose: 250.0 mg/kg/injection, schedule: Q01DX011 (sc), vehicle: steriod suspending solution",115 % of control
same,T/C,"dose: 500.0 mg/kg/injection, schedule: Q01DX011 (sc), vehicle: steriod suspending solution",120 % of control
same,T/C,"dose: 1000.0 mg/kg/injection, schedule: Q01DX011 (sc), vehicle: steriod suspending solution",112 % of control
